{"source": "ChEMBL document CHEMBL5512696", "about": "“Discovery of a Novel ASM Direct Inhibitor with a 1,5-Diphenyl-pyrazole Scaffold and Its Antidepressant Mechanism of Action” (J Med Chem, 2024)", "target": "T1, Sphingomyelin phosphodiesterase (Homo sapiens, UniProt P17405)", "T1 sequence (P17405 whole entry)": "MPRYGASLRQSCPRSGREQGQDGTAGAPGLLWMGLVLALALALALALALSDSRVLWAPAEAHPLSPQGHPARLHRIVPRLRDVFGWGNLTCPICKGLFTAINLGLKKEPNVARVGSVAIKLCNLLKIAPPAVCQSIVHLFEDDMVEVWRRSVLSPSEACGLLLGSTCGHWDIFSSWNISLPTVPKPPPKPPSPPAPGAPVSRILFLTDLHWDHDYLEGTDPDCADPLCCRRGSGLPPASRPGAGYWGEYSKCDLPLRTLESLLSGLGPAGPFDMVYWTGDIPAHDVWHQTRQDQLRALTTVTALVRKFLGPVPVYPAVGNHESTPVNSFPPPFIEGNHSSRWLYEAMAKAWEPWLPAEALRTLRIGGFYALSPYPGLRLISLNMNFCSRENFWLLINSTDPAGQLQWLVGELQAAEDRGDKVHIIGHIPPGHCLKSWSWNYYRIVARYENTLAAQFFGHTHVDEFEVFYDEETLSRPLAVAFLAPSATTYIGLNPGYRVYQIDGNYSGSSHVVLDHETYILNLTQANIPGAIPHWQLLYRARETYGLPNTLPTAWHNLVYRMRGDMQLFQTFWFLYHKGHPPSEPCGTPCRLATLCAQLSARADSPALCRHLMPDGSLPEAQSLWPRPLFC", "test": "Inhibition of human recombinant ASM (His62 to Pro628 residues) using HMU-PC as substrate incubated for 2 hrs by fluorescence based analysis"}
{"smiles": "CCCCCCCCCCOc1cc(C(=O)NO)ccc1OC", "values": [{"measurement": "IC50", "result": 1200, "unit": "nM"}]}
